Data published in patent publication US20060247227A1, “Substituted piperidines as histamine h3 receptor ligands” (priority 2003, published 2006).
Counter-ions that a name gives are not always drawn.

Target: T1, histamine H3 receptor (Homo sapiens, UniProt Q9Y5N1)
T1 construct: expressed in transfected cells; host or cells: CHO K1 cells carrying pSwitch, transfected with pGeneH3 and induced with mifepristone; clone 3H3; membranes
Assay: Histamine H3 functional antagonist assay ([35S]GTPγS, SPA, membranes of CHO K1 cells expressing the receptor)
Type: biochemical
Settings: histamine-stimulated GTPγS binding, membranes with human H3
Text: A membrane preparation containing histamine H3 receptors may be prepared in accordance with the following procedures:
(i) Generation of Histamine H3 Cell Line
DNA encoding the human histamine H3 gene (Huvar, A. et al. (1999) Mol. Pharmacol. 55(6), 1101-1107) was cloned into a holding vector, pCDNA3.1 TOPO (InVitrogen) and its cDNA was isolated from this vector by restriction digestion of plasmid DNA with the enzymes BamH1 and Not-1 and ligated into the inducible expression vector pGene (InVitrogen) digested with the same enzymes. The GeneSwitch™ system (a system where in transgene expression is switched off in the absence of an inducer and switched on in the presence of an inducer) was performed as described in U.S. Pat. Nos. 5,364,791; 5,874,534; and 5,935,934. Ligated DNA was transformed into competent DH5α E. coli host bacterial cells and plated onto Luria Broth (LB) agar containing Zeocin™ (an antibiotic which allows the selection of cells expressing the sh ble gene which is present on pGene and pSwitch) at 50 μg ml^−1. Colonies containing the re-ligated plasmid were identified by restriction analysis. DNA for transfection into mammalian cells was prepared from 250 ml cultures of the host bacterium containing the pGeneH3 plasmid and isolated using a DNA preparation kit (Qiagen Midi-Prep) as per manufacturers guidelines (Qiagen).
CHO K1 cells previously transfected with the pSwitch regulatory plasmid (InVitrogen) were seeded at 2×10e6cells per T75 flask in Complete Medium, containing Hams F12 (GIBCOBRL, Life Technologies) medium supplemented with 10% v/v dialysed foetal bovine serum, L-glutamine, and hygromycin ([…]), 24 hours prior to use. Plasmid DNA was transfected into the cells using Lipofectamine plus according to the manufacturers guidelines (InVitrogen). 48 hours post transfection cells were placed into complete medium supplemented with […] Zeocin™.
10-14 days post selection 10 nM Mifepristone (InVitrogen), was added to the culture medium to induce the expression of the receptor. 18 hours post induction cells were detached from the flask using ethylenediamine tetra-acetic acid (EDTA; 1:5000; InVitrogen), following several washes with phosphate buffered saline pH 7.4and resuspended in Sorting Medium containing Minimum Essential Medium (MEM), without phenol red, and supplemented with Earles salts and 3% Foetal Clone II (Hyclone). Approximately 1×10e7 cells were examined for receptor expression by staining with a rabbit polyclonal antibody, 4a, raised against the N-terminal domain of the histamine H3 receptor, incubated on ice for 60 minutes, followed by two washes in sorting medium. Receptor bound antibody was detected by incubation of the cells for 60 minutes on ice with a goat anti rabbit antibody, conjugated with Alexa 488 fluorescence marker (Molecular Probes). Following two further washes with Sorting Medium, cells were filtered through a 50 μm Filcon™ (BD Biosciences) and then analysed on a FACS Vantage SE Flow Cytometer fitted with an Automatic Cell Deposition Unit. Control cells were non-induced cells treated in a similar manner. Positively stained cells were sorted as single cells into 96-well plates, containing Complete Medium containing 500 μg ml^−1 Zeocin™ and allowed to expand before reanalysis for receptor expression via antibody and ligand binding studies. One clone, 3H3, was selected for membrane preparation.
(ii) Membrane Preparation from Cultured Cells
All steps of the protocol are carried out at 4° C. and with pre-cooled reagents. The cell pellet is resuspended in 10 volumes of buffer A2 containing 50 mM N-2-hydroxyethylpiperazine-N′-2-ethanesulfonic acid (HEPES) (pH 7.40) supplemented with […] leupeptin (acetyl-leucyl-leucyl-arginal; Sigma L2884), 25 μg/ml bacitracin (Sigma B0125), 1 mM ethylenediamine tetra-acetic acid (EDTA), 1 mM phenylmethylsulfonyl fluoride (PMSF) and 2×10e-6M pepstain A (Sigma). […]

T1 sequence (Q9Y5N1 whole entry): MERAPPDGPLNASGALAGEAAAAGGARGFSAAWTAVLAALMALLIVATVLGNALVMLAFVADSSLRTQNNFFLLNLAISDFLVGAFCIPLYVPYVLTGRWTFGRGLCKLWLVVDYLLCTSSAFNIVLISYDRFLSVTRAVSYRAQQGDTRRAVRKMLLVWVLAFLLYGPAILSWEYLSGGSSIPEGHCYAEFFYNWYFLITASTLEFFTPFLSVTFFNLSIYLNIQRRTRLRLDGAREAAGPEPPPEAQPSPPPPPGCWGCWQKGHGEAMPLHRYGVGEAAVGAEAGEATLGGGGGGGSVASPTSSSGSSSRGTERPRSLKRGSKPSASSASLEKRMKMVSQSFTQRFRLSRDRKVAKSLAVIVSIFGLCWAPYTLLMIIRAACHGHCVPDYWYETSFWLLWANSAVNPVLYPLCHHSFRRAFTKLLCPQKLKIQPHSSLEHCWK

| Ki | SMILES |
| --- | --- |
| ≤ 1 nM | CC(C)N1CCC(OC2CCN(c3ccc(C(=O)N4CCCCC4)nc3)CC2)CC1 [Example E34] |
| ≤ 1 nM | O=C(c1ccc(N2CCC(OC3CCN(C4CCC4)CC3)CC2)cn1)N1CCCCC1 [Example E35] |
| ≤ 1 nM | CC(C)N1CCC(OC2CCN(c3ccc(C(=O)N4CCOCC4)nc3)CC2)CC1 [Example E36] |
| ≤ 1 nM | O=C(c1ccc(N2CCC(OC3CCN(C4CCC4)CC3)CC2)cn1)N1CCOCC1 [Example E37] |
| < 0.316 nM | CNC(=O)c1ccc(N2CCC(OC3CCN(C4CCC4)CC3)CC2)cn1 [Example E38, 5-{4-[(1-Cyclobutyl-4-piperidinyl)oxy]-1-piperidinyl}-N-methyl-2-pyridinecarboxamide hydrochloride] |
| ≤ 1 nM | CCNC(=O)c1ccc(N2CCC(OC3CCN(C(C)C)CC3)CC2)cn1 [Example E39] |
| ≤ 1 nM | CCCNC(=O)c1ccc(N2CCC(OC3CCN(C(C)C)CC3)CC2)cn1 [Example E41] |
| ≤ 1 nM | CC(C)N1CCC(OC2CCN(c3ccc(C(=O)NC4CCCC4)nc3)CC2)CC1 [Example E45] |
| ≤ 1 nM | O=C(NC1CCCC1)c1ccc(N2CCC(OC3CCN(C4CCC4)CC3)CC2)cn1 [Example E46] |
| ≤ 1 nM | N#Cc1ccc(N2CCC(OC3CCN(C4CCC4)CC3)CC2)cn1 [Example E47, 5-{4-[(1-Cyclobutyl-4-piperidinyl)oxy]-1-piperidinyl}-2-pyridinecarbonitrile hydrochloride] |
| < 0.316 nM | CC(=O)c1ccc(N2CCC(OC3CCN(C4CCC4)CC3)CC2)cc1 [Example E48, 1-(4-{4-[(1-Cyclobutyl-4-piperidinyl)oxy]-1-piperidinyl}phenyl)ethanone hydrochloride] |
| ≤ 1 nM | FC(F)(F)c1ccc(N2CCC(OC3CCN(C4CCC4)CC3)CC2)cn1 [Example E49, 5-{4-[(1-Cyclobutyl-4-piperidinyl)oxy]-1-piperidinyl}-2-(trifluoromethyl)pyridine hydrochloride] |
| < 10 nM | CNC(=O)c1ccc(N2CCC(OC3CCN(C(C)C)CC3)CC2)nc1 [Example E50] |
| < 10 nM | CC(C)N1CCC(OC2CCN(c3ccc(C(=O)N(C)C)cn3)CC2)CC1 [Example E51] |
| < 10 nM | CC(C)N1CCC(OC2CCN(c3ccc(C(=O)N4CCCC4)cn3)CC2)CC1 [Example E52] |
| < 10 nM | CC(C)N1CCC(OC2CCN(c3ccc(C(=O)N4CCOCC4)cn3)CC2)CC1 [Example E53] |
| ≤ 1 nM | CNC(=O)c1ccc(N2CCC(OC3CCN(C4CCC4)CC3)CC2)nc1 [Example E54] |
| ≤ 1 nM | CN(C)C(=O)c1ccc(N2CCC(OC3CCN(C4CCC4)CC3)CC2)nc1 [Example E55] |

The next lines start with the compound.

| SMILES | Ki |
| --- | --- |
| CC(C)N1CCC(OC2CCN(c3ccc(C#N)cn3)CC2)CC1 [Example E1, 6-(4-([1-(1-Methylethyl)-4-piperidinyl]oxy}-1-piperidinyl)-3-pyridinecarbonitrile hydrochloride] | < 10 nM |
| N#Cc1ccc(N2CCC(OC3CCN(C4CCC4)CC3)CC2)nc1 [Example E2, 6-{4-[(1-Cyclobutyl-4-piperidinyl)oxy]-1-piperidinyl}-3-pyridinecarbonitrile hydrochloride] | ≤ 1 nM |
| N#Cc1ccc(N2CCC(OC3CCN(C4CCC4)CC3)CC2)cc1 [Example E3, 4-{4-[(1-Cyclobutyl-4-piperidinyl)oxy]-1-piperidinyl}benzonitrile hydrochloride] | ≤ 1 nM |
| CC(C)N1CCC(OC2CCN(c3ccc(C#N)cc3)CC2)CC1 [Example E4, 4-(4-{[1-(1-Methylethyl)-4-piperidinyl]oxy}-1-piperidinyl)benzonitrile hydrochloride] | ≤ 1 nM |
| O=C(c1ccc(N2CCC(OC3CCN(C4CCC4)CC3)CC2)cc1)N1CCOCC1 [Example E5, 4-[(4-{4-[(1-Cyclobutyl-4-piperidinyl)oxy]-1-piperidinyl}phenyl)carbonyl]morpholine hydrochloride] | ≤ 1 nM |
| CNC(=O)c1ccc(N2CCC(OC3CCN(C4CCC4)CC3)CC2)cc1 [Example E6, 4-[4-[(1-Cyclobutyl-4-piperidinyl)oxy]-1-piperidinyl)-N-methylbenzamide hydrochloride] | ≤ 1 nM |
| CC(C)N1CCC(OC2CCN(c3ccc(C(=O)N4CCOCC4)cc3)CC2)CC1 [Example E7] | ≤ 1 nM |
| CC(C)N1CCC(OC2CCN(c3ccc(C(=O)N4CCCCC4)cc3)CC2)CC1 [Example E8] | ≤ 1 nM |
| CC(C)N1CCC(OC2CCN(c3ccc(C(=O)N4CCCC4)cc3)CC2)CC1 [Example E10] | ≤ 1 nM |
| O=C(c1ccc(N2CCC(OC3CCN(C4CCC4)CC3)CC2)cc1)N1CCCC1 [Example E11] | ≤ 1 nM |
| CC(C)N1CCC(OC2CCN(c3ccc(C(=O)N(C)C)cc3)CC2)CC1 [Example E12] | ≤ 1 nM |
| CN(C)C(=O)c1ccc(N2CCC(OC3CCN(C4CCC4)CC3)CC2)cc1 [Example E13] | ≤ 1 nM |
| CNC(=O)c1ccc(N2CCC(OC3CCN(C(C)C)CC3)CC2)cc1 [Example E14] | < 10 nM |
| O=C(NCCCCl)c1ccc(N2CCC(OC3CCN(C4CCC4)CC3)CC2)cc1 [Example E15, N-(3-Chloropropyl)-4-{4-[(1-cyclobutyl-4-piperidinyl)oxy]-1-piperidinyl}benzamide hydrochloride] | ≤ 1 nM |
| Cc1nc(-c2ccc(N3CCC(OC4CCN(C5CCC5)CC4)CC3)cc2)co1 [Example E16, 1-Cyclobutyl-4-({1-[4-(2-methyl-1,3-oxazol-4-yl)phenyl]-4-piperidinyl}oxy)piperidine hydrochloride] | ≤ 1 nM |
| Cc1noc(-c2ccc(N3CCC(OC4CCN(C(C)C)CC4)CC3)cc2)n1 [Example E17, 1-(1-Methylethyl)-4-({1-[4-(3-methyl-1,2,4-oxadiazol-5-yl)phenyl]-4-piperidinyl}oxy)piperidine hydrochloride] | < 0.316 nM |

| SMILES | Ki |
| --- | --- |
| Cc1nc(-c2ccc(N3CCC(OC4CCN(C(C)C)CC4)CC3)cc2)co1 [Example E18] | < 10 nM |
| CC(C)N1CCC(OC2CCN(c3ccc(-c4ncco4)cc3)CC2)CC1 [Example E19] | < 10 nM |
| Cc1ncc(-c2ccc(N3CCC(OC4CCN(C(C)C)CC4)CC3)cc2)o1 [Example E20] | < 10 nM |
| c1coc(-c2ccc(N3CCC(OC4CCN(C5CCC5)CC4)CC3)cc2)n1 [Example E21] | ≤ 1 nM |
| Cc1ncc(-c2ccc(N3CCC(OC4CCN(C5CCC5)CC4)CC3)cc2)o1 [Example E22] | ≤ 1 nM |
| Cc1cc(-c2ccc(N3CCC(OC4CCN(C(C)C)CC4)CC3)cc2)on1 [Example E23] | ≤ 1 nM |
| Cc1cc(-c2ccc(N3CCC(OC4CCN(C5CCC5)CC4)CC3)cc2)on1 [Example E24] | ≤ 1 nM |
| Cc1nc(-c2ccc(N3CCC(OC4CCN(C5CCC5)CC4)CC3)cc2)no1 [Example E25] | ≤ 1 nM |
| CC(C)N1CCC(OC2CCN(c3ccc(-c4nnc(-c5ccccc5)o4)cc3)CC2)CC1 [Example E26] | ≤ 1 nM |
| c1ccc(-c2nnc(-c3ccc(N4CCC(OC5CCN(C6CCC6)CC5)CC4)cc3)o2)cc1 [Example E27] | ≤ 1 nM |
| Cc1noc(-c2ccc(N3CCC(OC4CCN(C5CCC5)CC4)CC3)cc2)n1 [Example E28] | ≤ 1 nM |
| c1ncc(-c2ccc(N3CCC(OC4CCN(C5CCC5)CC4)CC3)cc2)o1 [Example E29] | ≤ 1 nM |
| CC(C)N1CCC(OC2CCN(c3ccc(-c4cnco4)cc3)CC2)CC1 [Example E30] | ≤ 1 nM |
| CN(C)C(=O)c1ccc(N2CCC(OC3CCN(C4CCC4)CC3)CC2)cn1 [Example E31, 5-{4-[(1-Cyclobutyl-4-piperidinyl)oxy]-1-piperidinyl}-N,N-dimethyl-2-pyridinecarboxamide hydrochloride] | ≤ 1 nM |
| CC(C)N1CCC(OC2CCN(c3ccc(C(=O)N(C)C)nc3)CC2)CC1 [Example E32] | ≤ 1 nM |
| CC(C)N1CCC(OC2CCN(c3ccc(C(=O)N4CCCC4)nc3)CC2)CC1 [Example E33] | ≤ 1 nM |
